Measured values as given in patent publication US9624247B2, “Pyrazolo-pyrrolidin-4-one derivatives as bet inhibitors and their use in the treatment of disease” (NOVARTIS AG, priority 2013, dated 2017).

Assays:
BRD4 (His-Brd4(44-477)) = BRD4 (His-Brd4(44-477)) (Homo sapiens (Human), UniProt O60885); experiment: TR-FRET in-vitro binding assay for BRD4; settings: acetyl-histone H4 peptide
Procedure: (§1) TR-FRET In-Vitro Binding Assays for BRD2, BRD3, and BRD4:
(§2) All assays were performed in 384 well microtiter plates. Each assay plate contained 8-point serial dilutions for 40 test compounds, plus 16 high- and 16 low controls. Liquid handling and incubation steps were done on an Innovadyne Nanodrop Express equipped with a robotic arm (Thermo CatX, Perkin Elmer/Caliper Twister II) and an incubator (Liconic STX40, Thermo Cytomat 2C450). The assay plates were prepared by addition of 50 nl per well of compound solution in 90% DMSO HummingBird nanodispenser (Zinsser Analytic). The assay was started by stepwise addition of 4.5 μl per well of bromo domain protein (50 mM HEPES, pH 7.5, 0.005% Tween20, 0.1% BSA, 50 mM NaCl, 45 nM His-Brd2(60-472) or 45 nM His-Brd3(20-477) or 45 nM His-Brd4(44-477) all proteins produced in-house) and 4.5 μl per well of peptide solution (50 mM HEPES, pH 7.5, 0.005% Tween20, 0.1% BSA, 50 mM NaCl, 60 nM acetyl-histone H4 (AcK 5, 8, 12, 16) (Biosyntan GmbH)). Reactions were incubated at 30° C. for 35 minutes. […] After 35 minutes incubation at 30° C., plates were measured in a Perkin Elmer EnVision multilabel reader. Concentrations causing 50% inhibition (IC50 values) were determined from percent inhibition values at different compound concentrations by non-linear regression analysis.
(§3) Preparation of Compound Dilutions
(§4) Test compounds were dissolved in DMSO (10 mM) and transferred into 1.4 mL flat bottom or V-shaped Matrix tubes carrying a unique 2D matrix. The stock solutions were stored at […] if not used immediately. For the test procedure the vials were defrosted and identified by a scanner whereby a working sheet was generated that guided the subsequent working steps. Compound dilutions were made in 96 well plates. This format enabled the assay of maximally 40 individual test compounds at 8 concentrations (single points) including 4 reference compounds, if desired (known BET inhibitors from the prior art, for this and other assays of the type disclosed herein). The dilution protocol included the production of “pre-dilution plates”, “master plates” and “assay plates”.
(§5) Pre-dilution plates: 96 polypropylene well plates were used as pre-dilution plates. A total of 4 pre-dilution plates were prepared including 10 test compounds each on the plate positions A1-A10, one standard compound at A11 and one DMSO control at A12. All dilution steps were done on a HamiltonSTAR robot.
(§6) Master plates: 30 μL of individual compound dilutions including standard compound and controls of the 4 “pre-dilution plates” were transferred into a 384 “master plate” including the following concentrations 10000, 3003, 1000, 300, 100, 30, 10 and 3 μM, respectively in 90% of DMSO.
(§7) Assay plates: Identical “assay plates” were then prepared by pipetting 50 nL each of compound dilutions of the “master plates” into 384-well “assay plates” by means of a HummingBird 384-channel dispenser. These plates were used directly for the assay which was performed in a total volume of 13.55 μL. This led to a final compound concentration of 37, 11, 3.7, 1.1, 0.37, 0.11, 0.037 and 0.011 μM and a final DMSO concentration of 0.37% in the assay.

BRD2 (His-Brd2(60-472)) = BRD2 (His-Brd2(60-472)) (Homo sapiens (Human), UniProt P25440); experiment: TR-FRET in-vitro binding assay for BRD2; settings: acetyl-histone H4 peptide
Chain of BRD2 (His-Brd2(60-472)) (P25440 60-472): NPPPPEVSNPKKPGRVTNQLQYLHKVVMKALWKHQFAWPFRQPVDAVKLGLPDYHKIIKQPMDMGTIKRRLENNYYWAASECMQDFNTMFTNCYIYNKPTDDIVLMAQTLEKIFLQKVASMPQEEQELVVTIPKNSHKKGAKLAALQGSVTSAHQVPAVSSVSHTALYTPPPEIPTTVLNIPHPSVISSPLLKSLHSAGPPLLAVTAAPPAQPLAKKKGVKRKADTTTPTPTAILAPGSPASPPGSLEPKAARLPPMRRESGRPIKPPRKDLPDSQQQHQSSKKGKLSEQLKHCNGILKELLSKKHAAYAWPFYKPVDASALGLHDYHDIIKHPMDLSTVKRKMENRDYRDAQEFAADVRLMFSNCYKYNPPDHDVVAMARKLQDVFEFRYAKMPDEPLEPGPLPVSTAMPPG
Procedure: as §1, §2, §3, §4, §5, §6, §7

K-562 cells = experiment: Cell growth inhibition assay (CellTiter-Glo), K-562; format: cell-based, human; settings: K-562, 4 days; for GI50: Homo sapiens, K562, 96 h, half-maximal growth inhibition; for K-562 TGI: total growth inhibition
Procedure: (§8) Cell Growth Inhibition Assay
(§9) The human leukemia cell lines MV-4-11, THP-1 and K-562 were employed to characterize the effect of BET inhibitors on cellular proliferation and viability. Cells were obtained from the American Type Culture Collection (ATCC) and cultured at 37° C. in a humidified 5% CO2 incubator in the following media: MV-4-11: DMEM high glucose (Animed #1-26F01-I), 10% FCS (Animed #2-01F26-I), 4 mM L-Glutamine (Animed #5-10K50), 1 mM Sodium Pyruvate (Animed #G03625P), lx Penicillin-Streptomycin (Animed #F12478P); K-562: Iscove's MEM (Animed #1-28F16-I), 10% FCS (Animed #2-01F26-I), 4 mM L-Glutamine (Animed #5-10K50), 1× Penicillin-Streptomycin (Animed #F12478P); THP-1: RPMI-1640 (Animed #1-41F01-I), 10% FCS (Animed #2-01F26-I), 2 mM L-Glutamine (Animed #5-10K50), 10 mM HEPES (Animed #5-31F100), 1 mM Sodium Pyruvate (Animed #G03625P), 1× Penicillin-Streptomycin (Animed #F12478P). The AML lines MV-4-11 and THP-1 are very sensitive to BET inhibitors and show massive cell death upon BET inhibition (Zuber et al., Nature, 478 (2011), 524-8). Compound-mediated suppression of cell proliferation/viability was assessed by quantification of cellular ATP levels using the CellTiter-Glo (CTG) reagent (Promega). Briefly, cells were seeded in 20 μl fresh medium into 384-well plates, followed by addition of 5 μl medium containing compound dilutions at 5-fold their final intended concentration. Dose-response effects were assessed by 3-fold serial dilutions of the test compound, starting at 10 μM. Following incubation of the cells for 4 days at 37° C. and 5% CO2, the effect of inhibitors on cell viability was quantified following addition of 20 μl CTG and luminescence quantification (integration time: 100 ms) as per vendor manual, using a correspondingly equipped Tecan M200 multi-mode platereader (TECAN, Switzerland). For data analysis, the assay background value determined in wells containing medium, but no cells, was subtracted from all data points. To enable differentiation of cytotoxic from cytostatic compounds, the number of viable cells is assessed relative to that observed at the time of compound addition using a separate cell plate (day 0). The effect of a particular test compound concentration on cell proliferation/viability is expressed as percentage of the background- and day 0-corrected luminescence reading obtained for cells treated with vehicle only (DMSO, 0.1% final concentration), which is set as 100%, whereas that luminescence reading for wells containing medium is set as −100%. Compound concentrations leading to half-maximal (IC50) and total growth inhibition (TGI) were determined using standard four parameter curve fitting.

BRD3 (His-Brd3(20-477)) = BRD3 (His-Brd3(20-477)) (Homo sapiens (Human), UniProt Q15059); experiment: TR-FRET in-vitro binding assay for BRD3; settings: acetyl-histone H4 peptide
Chain of BRD3 (His-Brd3(20-477)) (Q15059 20-477): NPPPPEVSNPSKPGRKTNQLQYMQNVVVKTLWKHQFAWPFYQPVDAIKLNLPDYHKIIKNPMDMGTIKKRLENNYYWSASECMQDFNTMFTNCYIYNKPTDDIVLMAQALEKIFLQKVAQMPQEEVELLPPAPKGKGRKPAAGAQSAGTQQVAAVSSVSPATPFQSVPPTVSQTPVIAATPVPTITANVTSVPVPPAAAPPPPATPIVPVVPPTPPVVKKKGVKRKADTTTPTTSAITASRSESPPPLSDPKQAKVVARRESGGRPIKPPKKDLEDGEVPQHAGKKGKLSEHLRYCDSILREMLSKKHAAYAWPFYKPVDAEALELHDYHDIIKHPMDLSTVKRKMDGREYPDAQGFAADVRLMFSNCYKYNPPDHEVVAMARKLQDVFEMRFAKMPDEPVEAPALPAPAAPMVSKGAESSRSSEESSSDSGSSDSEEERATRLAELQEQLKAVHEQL
Procedure: as §1
All assays were performed in 384 well microtiter plates. Each assay plate contained 8-point serial dilutions for 40 test compounds, plus 16 high- and 16 low controls. Liquid handling and incubation steps were done on an Innovadyne Nanodrop Express equipped with a robotic arm (Thermo CatX, Perkin Elmer/Caliper Twister II) and an incubator (Liconic STX40, Thermo Cytomat 2C450). The assay plates were prepared by addition of 50 nl per well of compound solution in 90% DMSO HummingBird nanodispenser (Zinsser Analytic). […] Reactions were incubated at 30° C. for 35 minutes. […] After 35 minutes incubation at 30° C., plates were measured in a Perkin Elmer EnVision multilabel reader.
as §3, §4, §5
(§10) These plates were used directly for the assay which was performed in a total volume of 13.55 μL.

MV-4-11 cells = experiment: Cell growth inhibition assay (CellTiter-Glo), MV-4-11; format: cell-based, human; settings: MV-4-11, 4 days; for GI50: Homo sapiens, MV4-11, 96 h, half-maximal growth inhibition; for MV-4-11 TGI: total growth inhibition
Procedure: as §8, §9

[1] = target: CREBBP bromodomain (His-CREBBP(1081-1197)) (Homo sapiens (Human), UniProt Q92793); experiment: AlphaScreen in-vitro binding assay for CREBBP; settings: AlphaScreen, acetyl-histone H4 peptide; read-out: CREBBP IC50
Chain of CREBBP bromodomain (His-CREBBP(1081-1197)) (Q92793 1081-1197): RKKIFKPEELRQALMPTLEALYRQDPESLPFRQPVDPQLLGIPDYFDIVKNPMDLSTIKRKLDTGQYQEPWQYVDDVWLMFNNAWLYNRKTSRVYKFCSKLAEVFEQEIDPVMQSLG
Procedure: AlphaScreen In-Vitro Binding Assay for CREBBP
In order to assess bromodomain selectivity, we set up a binding assay using the bromodomain encoded by the CREBBP gene. […] Reactions were incubated at 30° C. for 35 minutes. Subsequently 4.5 μl per well detection mix (50 mM HEPES, pH 7.5, 0.005% Tween20, 0.02% BSA, 150 mM NaCl, 45 μg/ml Ni-chelate acceptor beads, 45 μg/ml streptavidin-donor beads) (Perkin Elmer)) were added. After 60 minutes incubation at room temperature, plates were measured in a Perkin Elmer EnVision multilabel reader. IC50 values were determined from percent inhibition values at different compound concentrations by non-linear regression analysis.
as §3, §4, §5, §10

THP-1 cells = experiment: Cell growth inhibition assay (CellTiter-Glo), THP-1; format: cell-based, human; settings: THP-1, 4 days; for GI50: Homo sapiens, 96 h, half-maximal growth inhibition; for THP-1 TGI: total growth inhibition
Procedure: as §8, §9

Row | IC50 (BRD4 (His-Brd4(44-477))) [nM] | IC50 (BRD2 (His-Brd2(60-472))) [nM] | GI50 (K-562 cells) [nM] | IC50 (BRD3 (His-Brd3(20-477))) [nM] | GI50 (MV-4-11 cells) [nM] | IC50 [1] [nM] | GI50 (THP-1 cells) [nM] | Compound | K-562 TGI (K-562 cells) [nM] | MV-4-11 TGI (MV-4-11 cells) [nM] | THP-1 TGI (THP-1 cells) [nM]
1 | 15 | 13 | 96 | 12 | 6.47 | 7900 | 20.9 | Cc1cc(N2C(=O)c3c(C4CC4)nn(C[C@H](O)C(F)(F)F)c3[C@H]2c2ccc(Cl)cc2)cn2c(C)nnc12 [Example 20, (R)-6-(4-chlorophenyl)-3-cyclopropyl-5-(3,8-dimethyl-[1,2,4]triazolo[4,3-a]pyridin-6-yl)-1-((S)-3,3,3-trifluoro-2-hydroxypropyl)-5,6-dihydropyrrolo[3,4-c]pyrazol-4(1H)-one] | >10000 | 16.1 | 44.7
2 | < 11 | 11 | 63.1 | < 11 | 4.28 | 9800 | 9.68 | Cc1cc(N2C(=O)c3c(C4CC4)nn(C)c3[C@H]2c2ccc(Cl)cc2)cn2c(CF)nnc12 [Example 17, (R)-6-(4-chlorophenyl)-3-cyclopropyl-5-(3-(fluoromethyl)-8-methyl-[1,2,4]triazolo-[4,3-a]pyridin-6-yl)-1-methyl-5,6-dihydropyrrolo[3,4-c]pyrazol-4(1H)-one] | >10000 | 9.765 | 24.7
3 | 23 | 29 | 58.4 | 25 | 5.23 | 9400 | 14.7 | Cc1cc(N2C(=O)c3c(C4CC4)nn(C[C@@H](O)C(F)(F)F)c3[C@H]2c2ccc(Cl)cc2)cn2c(C)nnc12 [Example 19, (R)-6-(4-chlorophenyl)-3-cyclopropyl-5-(3,8-dimethyl-[1,2,4]triazolo[4,3-a]pyridin-6-yl)-1-((R)-3,3,3-trifluoro-2-hydroxypropyl)-5,6-dihydropyrrolo[3,4-c]pyrazol-4(1H)-one] | >10000 | 11.3 | 36.6
